Experimental data published in patent US20180185360A1, “CGRP RECEPTOR ANTAGONIST COMPOUNDS FOR TOPICAL TREATMENT OF SKIN DISORDERS” (GALDERMA RESEARCH & DEVELOPMENT, priority 2015, published 2018).

Experiments:
[1] = Skin concentration two hours after single topical application on the mouse ear; assay type: in vivo, BALB/c mice; details: 0.003% to 3%
From the text: (§1) This study has been conducted on BALB/c mice, 5 mice per group have been used.
At the end of the scan, blood is collected from the abdominal artery on anesthetized animals. The animals are then euthanatized and the treated ear collected and weighted. Plasma and ear are snapped frozen.

[2] = tested on: imiquimod (Aldara) induced psoriasiform skin inflammation; assay: Imiquimod induced psoriasiform mice model; assay type: in vivo, Balb/c mice; details: CD10192/41 at 2% topical twice daily, 2 h before and 6 h after Aldara
Protocol: Imiquimod psoriasiform model has been induced by daily topical application of Aldara (3.18 mg of imiquimod) for 3 or 7 days on the shaved back skin of Balb/c mice. The pharmacodynamic analysis were performed by using a transcriptional analysis at D4, a histological analysis at D4 and D8, a cells analysis at D8 and a Cytokines analysis at D8. • 1.2. Compounds • 1.2.1. Imiquimod
Imiquimod is sold under the name Aldara™ 5% by 3M-Pharmaceutical. 63.5 mg of Aldara cream is applied on the back skin of the mice, representing 3.2 mg of active compound. • 1.2.2. MK3207 (CD10192/41)
MK3207 compound is dissolved in PG/Ethanol 96 (30/70) and applied twice daily 2 h 00 before and 6 h 00 after Aldara treatment. • 1.2.3. Vehicles
PG/Ethanol (30/70) is used as a vehicle. • 1.2.4. Positive Control
CD0153F (Betamethasone valerate) at 0.01% (0.210 mM) in acetone by topical route is used as positive control. • 1.3. Mice
Balb/c mice strain has been used for the study. These animals have been obtained from controlled breeding and were specific pathogen free. The animals have been provided by Janvier SAS, France. • 1.4. Protocol […]
At day 4 skin biopsies were collected for quantifying gene expression of the inflammatory response via RT-PCR and for measuring epidermis thickness via histological stained slides (HE). […]

[3] = tested on: Dermatophagoides farinae (Der f)-induced AD-like skin inflammation; assay: Der f-induced atopic dermatitis mouse model; assay type: in vivo, Balb/c mice
Protocol: Der f has been purchased from Greer Laboratories and a Der f solution has been prepared in 70% DMSO in MilliQ water. 375 μg of Der f has been applied during 7 weeks on the left ear of mice. Compounds to be tested were applied every day of the week except during the weekend, on the Der f treated ear from week 4 until day 44. • 1.2. Compounds • 1.2.1. MK3207 (CD10192/41) MK3207 (CD10192/41) has been provided by Galderma and 3% of MK3207 (CD10192/41) solutions in ethanol have been prepared. • 1.2.2. Triamcinolone Acetonide Triamcinolone acetonide has been chosen as positive control for the Der f model. 0.01% of triamcinolone acetonide solution in ethanol has been used. • 1.2.3. Ethanol Ethanol 100 has been chosen as a vehicle to solubilize the compounds. • 1.3. Mice Balb/c mice strain has been used for the study. These animals have been obtained from controlled breeding and were specific pathogen free. The animals have been provided by Janvier SAS, France. • 1.4. Protocol AD-like lesions have been induced by topical application of 375 μl of Der f solution on each side of the left ear for 7 weeks at day 1, day 8, day 15, day 22, day 29, day 36 and day 43. Mice have been treated from day 20 to day 43 five days by week with the different solutions administrated by the topical route. Measurement of ear swelling has been monitored 24 hours after each allergen application. After day 19, ear swelling has been daily measured before compound application. After mouse euthanasia, at Day 44 the left ear has been collected and has been washed in ethanol 70% and has been rinsed in PBS. Skin biopsies of the left ear, have then been collected for cytokines profile quantification with Luminex technique and for the quantification of the eosinophil peroxidase thanks to the ELISA method. Draining lymph nodes have been collected and cultivated a whole night restimulated or not with 0.5 mg/ml of Der f extract before quantifying the number of Der f specific lymphocytes T producing INFγ.

[4] = tested on: αCGRP-induced skin blood perfusion increase; assay: CGRP-induced mice model of vasodilatation (Laser Doppler skin blood perfusion, right ear); assay type: in vivo, BALB/c mice; details: for decrease of the CGRP flush (AUC skin blood perfusion 0 to 15 min): topical, 90 min prior to αCGRP 20 μg/kg i.v.
Protocol: as §1
Body temperature was maintained at 35° C.-37° C. using an automated heating pad. Images were obtained from Laser Doppler perfusion imaging PIM3 (Perimed, France). For each mouse, the skin blood perfusion was evaluated every minute on the right ear. The laser beam of the PIM3 scanned a skin area of 2×2 cm. Prior to the treatment, 2 scans were performed.
The duration of the recording was 22 minutes in total.
The blood perfusion is mapped as colour coded images at intervals of 1 min. For each mouse ear, the area corresponding to the internal part of the ear is defined and adjusted for each image. From this selected area, we take the highest of the first two images as the background of blood perfusion (I ref). The background value is then subtracted from the next images of the kinetic.
The software calculates the erythematous surface (S) and the mean of the blood perfusion intensity (I) in this surface for the region of interest for all the images. […] For each time of kinetic, the relative area of blood perfusion is calculated as follow: Relative area of perfusion=(I/I ref)×S

[5] = clinical development discontinued; cited from earlier work
[6] = MK3207 3% topical, day 44, ear skin biopsies, Luminex

Structure (SMILES) | detection in skin samples [1] | reduction of the epidermis thickness ([2]; day 4) [%] | reduction of the number of IL17-production within the γδ T cells ([2]; day 8) [%] | eosinophil peroxidase production (EPX) ([3]; MK3207 3% topical, day 44, ear skin biopsies, ELISA) | production of IL17A [3, 6] | production of IL-4 [3, 6] | production of IL-5 [3, 6] | production of IL-13 [3, 6] | production of TNFα [3, 6] | production of IFNγ by lymphocyte T cells ([3]; draining lymph nodes restimulated with Der f, MK3207 3%, triamcinolone acetonide 0.01% topical) | ear swelling ([3]; topical MK3207, as soon as day 27 with a similar effect until day 43) | ear swelling / ear edema ([3]; topical in ethanol, MK3207 3% (day 44), triamcinolone acetonide 0.01%) | decrease of the CGRP flush (AUC skin blood perfusion 0 to 15 min) ([4]; MK3207 0.003% in ethanol, NS, p=0.2259) [%] | decrease of the CGRP flush (AUC skin blood perfusion 0 to 15 min) ([4]; MK3207 0.03% in ethanol, NS, p=0.0567) [%] | decrease of the CGRP flush (AUC skin blood perfusion 0 to 15 min) ([4]; MK3207 0.3% in ethanol, p=0.0112) [%] | decrease of the CGRP flush (AUC skin blood perfusion 0 to 15 min) ([4]; MK3207 3% in ethanol, p=0.0083) [%] | inhibition of αCGRP-induced increase in skin blood perfusion, dose dependence ([4]; topical 0.003% to 3%, 90 minutes prior to αCGRP, p=0.0017) | toxicity associated with oral use [5]
O=C(CN1C(=O)C2(CCCC2)NC[C@H]1c1cc(F)cc(F)c1)Nc1ccc2c(c1)C[C@@]1(C2)C(=O)Nc2ncccc21 [MK3207, 2-[(8R)-8-(3,5-difluorophenyl)-10-oxo-6,9-diazaspiro[4.5]dec-9-yl]-N-[(2R)-2′-oxo-1,1′,2′,3-tetrahydrospiro[indene-2,3′-pyrrolo[2,3-b]pyridin]-5-yl]acetamide] | detected in skin samples at all doses tested | 33 | 55 | reduction | significantly reduced | significantly reduced | significantly reduced | significantly reduced | significantly reduced | decrease | decrease | decrease | 31 | 49 | 70 | 80 | inhibited this increase in a dose-dependent manner | severe hepatotoxicity
NCCCC[C@H](NC(=O)[C@@H](Cc1cc(Br)c(O)c(Br)c1)NC(=O)N1CCC(N2Cc3ccccc3NC2=O)CC1)C(=O)N1CCN(c2ccncc2)CC1 [olcegepant, reference compound] |  |  |  |  |  |  |  |  |  |  |  |  |  |  |  |  |  | severe hepatotoxicity
O=C(N[C@@H]1CC[C@@H](c2cccc(F)c2F)CN(CC(F)(F)F)C1=O)N1CCC(n2c(=O)[nH]c3ncccc32)CC1 [telcagepant, reference compound] |  |  |  |  |  |  |  |  |  |  |  |  |  |  |  |  |  | severe hepatotoxicity
